What was measured:
Myd88 = assay: Mice study #2: Myd88 immunostaining of gingival tissue; format: in vivo, C57BL/6 mice; conditions: preventive and active treatment groups consistent
Description: Mice study #2: Validation study for preventive and active treatment for DIGO. […] One set of these mice were used as a control disease group (FIG. 23A) while the other group was treated with folic acid (gel and in drinking water) (FIG. 23B). In the prevention and treatment group, folic acid (10 μg/ml) (Sigma-Aldrich, St. Louis MO) was included in the drinking water from the time of suture placement until end of the study (14 days). Additionally, gel applications were repeated daily until the end of the study (14 days). The four groups in this study were: • 1. Control group (n=2): no interventions were performed • 2.
Histopathology and Immunohistochemistry. Mice mandibles were fixed in 10% formaldehyde for overnight at 4° C. on the shaker with 45 rpm and then the solutions were replaced with 70% ethanol. The tissues were decalcified with 10% ethylenediaminetetraacetic acid (EDTA) for 1 week and were dehydrated through graded ethanol, cleared with xylene, and embedded in paraffin. 4 μm serial sections were cut in a buccal-lingual direction and stained with Hematoxylin and Eosin (HE) and observed under light microscopy for histomorphological evaluations.
For immunohistochemistry, unstained sections were deparaffinized in xylene for 10 minutes and then transferred to ethanol for 20 minutes. […]

LITAF = assay: Mice study #2: LITAF immunoblotting of gingival samples; format: in vivo, C57BL/6 mice; conditions: pattern as for Myd88 (disease higher than control and treatment)
Description: Western blot analysis. Cells were seeded in 60 mm plates with a density of 5×10^5 cells per plate and washed briefly with Dulbecco's phosphate-buffered saline (Gibco, Waltham, MA, USA). Whole cell lysates were prepared using RIPA lysis buffer containing protease inhibitor cocktail (Sigma-Aldrich). Total protein concentration was determined using the BCA reagent (Pierce, Waltham, MA, USA). 20 μg of total protein were resolved on sodium dodecyl sulfate-polyacrylamide gel electrophoresis and transferred to polyvinylidenedifluoride membrane and immunoblotted. The blots were incubated for 1 h in 1% bovine serum albumin (BSA) (Sigma-Aldrich) to block the non-specific bindings followed by over-night incubation in primary antibodies (MyD88 and pP65 from Cell Signaling Technology, and human LITAF ThermoFisher Sigma) at 4° C. on shaker. Next day, blots were washed for three times (10 min each) in Tris-buffered saline containing 1% Tween20 (TBST) followed by incubation with secondary antibody (Goat anti-rabbit IgG HRP) with 1:10,000 dilution for 1 h. […] The band intensities were quantified using software ImageJ (NIH, USA) and relative protein levels were normalized by β-actin (Cell Signaling). […] The band intensities were measured by the software ImageJ (NIH, USA), and relative protein levels were normalized by β-actin.

Nc1nc2ncc(CNc3ccc(C(=O)N[C@@H](CCC(=O)O)C(=O)O)cc3)nc2c(=O)[nH]1 [folic acid]
epithelial Myd88 expression, disease group relative to folic acid-treated group (Myd88): significantly higher compared to both treated and control groups
LITAF expression, pattern across groups (LITAF): a similar pattern
